One test addresses T1, human SGLT1 (Homo sapiens, UniProt P13866).
T1 construct: expressed in transfected cells; PCR template pCMV6-hSGLT1 (OriGene)
T1 sequence (P13866 1-664): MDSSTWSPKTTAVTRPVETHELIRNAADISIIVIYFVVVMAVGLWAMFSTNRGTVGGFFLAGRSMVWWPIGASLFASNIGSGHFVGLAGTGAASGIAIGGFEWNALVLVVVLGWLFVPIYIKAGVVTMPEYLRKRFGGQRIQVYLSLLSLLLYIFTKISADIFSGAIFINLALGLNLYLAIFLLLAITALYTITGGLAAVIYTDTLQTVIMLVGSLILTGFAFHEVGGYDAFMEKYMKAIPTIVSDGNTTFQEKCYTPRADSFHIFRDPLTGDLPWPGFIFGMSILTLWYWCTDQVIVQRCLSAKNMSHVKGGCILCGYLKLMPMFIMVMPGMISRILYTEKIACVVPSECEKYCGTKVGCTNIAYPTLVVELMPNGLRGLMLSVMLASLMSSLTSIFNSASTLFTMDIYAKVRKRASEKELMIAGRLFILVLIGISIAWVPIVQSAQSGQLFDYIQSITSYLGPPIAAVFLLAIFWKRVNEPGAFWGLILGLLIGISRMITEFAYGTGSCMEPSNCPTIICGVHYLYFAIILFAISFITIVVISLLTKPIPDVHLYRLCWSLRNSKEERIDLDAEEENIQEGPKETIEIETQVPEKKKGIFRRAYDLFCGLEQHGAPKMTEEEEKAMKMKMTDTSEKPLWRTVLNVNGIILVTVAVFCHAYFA
Description: Assessment of SGLT1 inhibitory activity (14C-AMG uptake in human SGLT1-stably-expressing CHO-K1 cells). Type of test: cell-based. The method, then:
SGLT1 inhibitory activities of test compounds (IC50 values) were calculated based on the amount of intracellular uptake of labelled α-methyl-D-glucopyranoside (^14C-AMG) transported by SGLT1.
A DNA fragment containing human SGLT1 was amplified by PCR (Polymerase Chain Reaction) using pCMV6-hSGLT1 (OriGene) as a template. In the human SGLT1, NheI recognition and cleavage sequence was added to the upstream of Kozac consensus sequence derived from a vector, and a stop codon, TAG, and SalI recognition and cleavage sequence were added to the immediate downstream of the protein-translating region of human SGLT1. […]
Human SGLT1-stably-expressing cell lines were seeded at 5 x 10^4 cells/well on BioCoat™ Poly-D-Lysine 96 well plate with Lid (Becton, Dickinson and Company) and cultured at 37° C. under 5% CO2 overnight. […] In the assessment for the uptake ability of 14C-AMG, the total amount of the cell lysate was transferred to OptiPlate 96 (Perkin-Elmer) with 100 µL/well of MicroScint-40 (Perkin-Elmer) dispensed and ^14 C of CPM was measured with TOPCOUNT NXT (Perkin-Elmer).
Data was calculated by deducting the average value of CPM for blank well from the average value of CPM for each well treated. An inhibition rate for each test compound in each concentration was calculated from the following equation: […]

Test [1] concerns glucose-loaded SD rats. Nature of the test: OGTT (oral glucose tolerance test), Test Example 3. The following applies: 3 mg/kg orally 16 hours before glucose load; male SD rats; compared to vehicle. Type of test: in vivo, rat. The method, then: Vehicle (0.5% methylcellulose solution), or Compound 1, Compound A, or Compound B (3 mg/kg each) suspended in a 0.5% methylcellulose solution was orally administered in 5 mL/kg to an about 4-hour-fasted male SD rat (8-week old, Nihon Charles River K.K., 5 cases for each group).
Statistical analyses were based on Dunnett’s multiple group test. The significance level was two-sided 5%.

The next test has as its system SDT fatty rats. Description: Assessment of renal protective effect (GFR in SDT fatty rats). It counts as in vivo, rat. The conditions noted are these: 2 mg/kg orally once a day, 16 weeks; male SDT fatty rats. The method, then: Vehicle (0.5% methyl cellulose solution), Compound 1 (2 mg/kg), or dapagliflozin (0.3 mg/kg) was orally administered once a day to male SDT fatty rats (7-week old, CLEA Japan, Inc.); and as a normal control, vehicle was orally administered once a day to male SD rats (7-week old, CLEA Japan, Inc.). 16 Weeks after the administration, GFR (mL/min/100 g B.W.) was measured with a transdermal GFR monitor (MediBeacon). For statistical analysis, Student’s test was conducted between the vehicle-administered group of SD rats and the vehicle-administered group of SDT fatty rats. Dunnett’s multiple test was conducted for the Compound 1 and dapagliflozin groups to the vehicle group of SDT fatty rats. The significance level was two-sided 5%.

Another test relates to ⅚-kidney-removed rats. Nature of the test: Assessment of renal protective effect 2 (⅚-kidney-removed rats). It counts as in vivo, rat. The following applies: 2 mg/kg/day mixed with feed, vs vehicle-administered group. The method, then: 7-Week old male Wistar rats (Japan SLC, Inc.) were treated by removing ⅔ of the left kidney under isoflurane anesthesia and then removing the whole right kidney one week later to prepare ⅚-kidney-removed rats. Compound 1 (2 mg/kg/day) mixed with feed was orally administered to the rats from the age of 9 weeks. As a normal control, male Wistar rats at the same age were set as a sham group. […] For statistical analysis, Student’s test was conducted between the vehicle-administered group and the Compound 1-administered group. […] For statistical analysis, Student’s test or Aspin-Welch was conducted.

In test [2] the test system is glucose-loaded SD rats. Nature of the test: OGTT (oral glucose tolerance test), Test Example 2. It counts as in vivo, rat. The conditions noted are these: 1, 3, or 10 mg/kg orally 16 hours before glucose load; male SD rats; compared to vehicle. The method, then: Vehicle (0.5% methylcellulose solution) or Compound 1 (1, 3, or 10 mg/kg) suspended in a 0.5% methylcellulose solution was orally administered in 5 mL/kg to an about 4-hour-fasted male SD rat (8-week old, Nihon Charles River K.K., 6 cases for each group).
Statistical analyses were based on Steel’s multiple test. The significance level was two-sided 5%.

Structures are written as SMILES.

Take `C[C@H]1C(=O)NC[C@@H]1C(=O)Nc1cc(-c2cc(F)cc(OC(C)(C)C)c2)n(C(F)(F)F)n1` [Compound 1, (3R,4R)-N-(5-(3-(tert-butoxy)-5-fluorophenyl)-1-(trifluoromethyl)-1H-pyrazol-3-yl)-4-methyl-5-oxopyrrolidine-3-carboxamide]: the SGLT1 inhibitory activity result on human SGLT1 is listed as “confirmed to have the SGLT1 inhibitory activity”. The “blood glucose level after the glucose load (Δ AUC to 120 minutes, % of Vehicle)” value in the test with glucose-loaded SD rats [1] was “significantly reduced”. Moreover, the GFR result with SDT fatty rats was “inhibited the increase of GFR”. Further, in the test on ⅚-kidney-removed rats, the “protein quantity in the urine” value was “lower than those of the vehicle-administered group” and the urea nitrogen level result is given as “significantly lower than those of the vehicle-administered group”. For the same molecule, the “blood glucose level after the glucose load (Δ AUC to 120 minutes, % of Vehicle)” value in the test on glucose-loaded SD rats [2] is listed as “significantly reduced”.

For the origin of these results see US20230210831A1, “CHRONIC KIDNEY DISEASE TREATMENT OR PREVENTION METHOD” (Japan Tobacco Inc., priority 2019, published 2023).
